Laboratory results as given in patent US4808596A, “Imidazo[4,5-b]pyridine compounds and pharmaceutical compositions containing same” (Tokyo Tanabe Company, Ltd., priority 1986, dated 1989).

Legend:
[1] = tested on: various experimental ulcers; test: Inhibitory effects on various experimental ulcers (overall statement); parameters: species or system male Wistar rats; conditions: in vivo
Description: (§1) The inhibitory effects of the present compounds [I] on various experimental ulcers were tested by using male Wistar rats, weighing about 200 g, in groups of six and determining the respective ulceration indexes for 5 types of experimental ulcers. In each test, the test compounds were suspended in a 0.5% aqueous solution of carboxymethyl cellulose and administered orally in a series of appropriately selected doses ranging from 1 to 100 mg/kg. The test procedures for 5 types of experimental ulcers were as follows:
(§2) The pharmacological effect of the test compounds on each of the aforesaid experimental ulcers was evaluated on the basis of the dose (in mg/kg) required to inhibit the formation of ulcers by 50% (hereinafter referred to as ID50). The ID50 value of each test compound was determined by calculating the difference in ulceration index between the untreated group and each treated group, dividing the difference by the ulceration index of the untreated group to obtain the degree of inhibition, and constructing a dose-response curve on the basis of the data thus obtained. For purposes of comparison, the ID50 values of Omeprazole and Compounds α and β were determined in the same manner as described above and are also shown in Table 4.

Aspirin ulcer = test: Inhibitory effect on aspirin ulcer; type: in vivo, male Wistar rats; conditions: Rattus norvegicus; oral, rats; 30 minutes before ligation; aspirin 150 mg/kg; 7 hours; read-out: Inhibitory effect on Aspirin ulcer, ID50
Description: as §1
In rats which had been fasted for 24 hours, the pyloric end of the stomach was ligated. After 5 minutes, aspirin was orally administered thereto in a dose of 150 mg/kg. Seven hours after ligation, each rat was sacrificed and the length of the ulcer(s) formed in the glandular stomach part was measured. The ulceration index was calculated on the basis of the data thus obtained. The test compounds were administered 30 minutes before ligation.
as §2

(H^+ +K^+) ATPase = target: T1, (H^+ +K^+) ATPase (Sus scrofa, UniProt P19156); test: Inhibitory effect on (H^+ +K^+) ATPase; type: biochemical, hog; conditions: in vitro; for inhibition at 1000 µM: at 1 × 10^-3 M, read-out: Degree of inhibition, Inhibitory effect on (H^+ + K^+) ATPase
T1 construct: prepared from fresh pieces of the fundus ventriculi of hog stomach; from tissue; host or cells: hog stomach, fundus ventriculi (fresh pieces), prepared by the method of Saccomani et al., J. Biol. Chem. 1976
T1 sequence (P19156 2-1034 limits assumed): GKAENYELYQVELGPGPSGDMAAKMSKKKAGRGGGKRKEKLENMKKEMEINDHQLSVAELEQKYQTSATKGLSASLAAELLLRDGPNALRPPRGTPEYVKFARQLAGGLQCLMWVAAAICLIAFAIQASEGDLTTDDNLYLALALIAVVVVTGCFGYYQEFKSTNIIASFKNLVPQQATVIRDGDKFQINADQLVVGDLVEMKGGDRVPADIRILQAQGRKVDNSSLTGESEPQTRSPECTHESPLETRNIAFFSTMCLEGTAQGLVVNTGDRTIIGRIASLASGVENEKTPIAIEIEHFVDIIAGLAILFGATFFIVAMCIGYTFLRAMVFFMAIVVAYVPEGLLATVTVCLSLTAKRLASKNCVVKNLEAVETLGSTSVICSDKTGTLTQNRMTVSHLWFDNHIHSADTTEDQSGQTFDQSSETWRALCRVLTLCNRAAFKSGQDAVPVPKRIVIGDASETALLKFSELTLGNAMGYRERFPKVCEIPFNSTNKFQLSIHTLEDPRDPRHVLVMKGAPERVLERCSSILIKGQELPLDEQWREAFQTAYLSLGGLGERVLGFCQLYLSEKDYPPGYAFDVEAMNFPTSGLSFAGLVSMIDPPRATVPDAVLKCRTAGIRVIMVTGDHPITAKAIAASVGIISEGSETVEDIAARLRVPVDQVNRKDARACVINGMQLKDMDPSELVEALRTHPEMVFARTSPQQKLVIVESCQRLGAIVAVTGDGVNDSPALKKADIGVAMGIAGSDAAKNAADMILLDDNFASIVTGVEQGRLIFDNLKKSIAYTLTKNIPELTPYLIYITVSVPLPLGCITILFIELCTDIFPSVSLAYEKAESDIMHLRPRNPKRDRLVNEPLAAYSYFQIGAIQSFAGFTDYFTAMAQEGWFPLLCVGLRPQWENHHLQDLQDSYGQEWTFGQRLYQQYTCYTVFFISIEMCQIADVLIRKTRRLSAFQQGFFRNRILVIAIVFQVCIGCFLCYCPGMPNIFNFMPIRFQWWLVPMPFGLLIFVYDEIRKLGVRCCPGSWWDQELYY
T1 sequence (P18434 whole entry partner): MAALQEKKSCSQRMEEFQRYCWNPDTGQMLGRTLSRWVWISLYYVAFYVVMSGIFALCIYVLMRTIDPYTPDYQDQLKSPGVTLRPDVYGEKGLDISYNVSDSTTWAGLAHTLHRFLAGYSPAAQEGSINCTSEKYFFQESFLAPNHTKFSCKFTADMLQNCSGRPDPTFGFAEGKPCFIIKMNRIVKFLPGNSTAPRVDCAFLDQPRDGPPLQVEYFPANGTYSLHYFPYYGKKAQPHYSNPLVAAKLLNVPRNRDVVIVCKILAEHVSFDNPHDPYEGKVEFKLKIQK
Description: The inhibitory effect of the present compounds [I] on (H^+ +K^+) ATPase was tested by adding each test compound to a solution containing 300-500 μg, on a protein basis, of the enzyme, incubating this reaction mixture at 35°-37° C. for 5-30 minutes, and then determining the residual activity of (H^+ +K^+) ATPase present in the reaction mixture. The test compounds were dissolved in methanol or ethanol in advance and added to the reaction system in such an amount as to give a concentration of 1×10^-3 M. The (H^+ +K^+) ATPase used in this test was prepared from fresh pieces of the fundus ventriculi of hog stomach according to the method of Saccomani et al. (The Journal of Biological Chemistry, Vol. 251, No. 23, p. 7690, 1976). The residual activity of (H^+ +K^+) ATPase was determined by mixing magnesium chloride and potassium chloride with the incubated reaction mixture, adding adenosine triphosphate thereto, incubating this assay mixture 37° C. for 5-15 minutes to effect an enzymic reaction, and colorimetrically determining the liberated inorganic phosphate by use of an ammonium molybdate reagent. The initial concentrations of magnesium chloride, potassium chloride and adenosine triphosphate were adjusted to 2 mM, 20 mM and 2 mM, respectively. Colorimetric determinations were made at a wavelength of 360-400 nm. As a control experiment, the residual activity of (H^+ +K^+) ATPase was determined by repeating the above-described procedure without adding any test compound to the reaction system. In this table, the inhibitory effect is indicated by the degree of inhibition which was obtained by calculating the difference between the measured value obtained in the control experiment and the measured value resulting from the addition of each test compound and expressing this difference as a percentage of the measured value obtained in the control experiment. For purposes of comparison, the inhibitory effect of Omeprazole and Compounds α and β on (H^+ +K^+) ATPase was tested in the same manner as described above and the results thus obtained are also shown in Table 2.

`COc1c(C)cnc(C[S+]([O-])c2nc3ncc(Br)cc3[nH]2)c1C` (stereo not drawn) [Compound α, 2-[2-(3,5-dimethyl-4-methoxy)pyridylmethylsulfinyl]-6-bromoimidazo[4,5-b]pyridine, reference compound] was tested, and the “inhibitory effects on various experimental ulcers (in words)” value [1] was “not satisfactorily reflected in the in vivo tests”, the ED50 (Aspirin ulcer) was ≥ 100 mg/kg and the inhibition at 1000 µM ((H^+ +K^+) ATPase) was 100%. For the same compound, the “inhibitory effect on (H^+ +K^+) ATPase (in words)” value ((H^+ +K^+) ATPase) was “marked inhibitor effect”.

In the case of `COc1c(C)cnc(C[S+]([O-])c2nc3ncc(C)cc3[nH]2)c1C` (stereo not drawn) [Compound β, 2-[2-(3,5-dimethyl-4-methoxy)pyridylmethylsulfinyl]-6-methylimidazo[4,5-b]-pyridine, reference compound], the “inhibitory effects on various experimental ulcers (in words)” value [1] is reported as “not satisfactorily reflected in the in vivo tests”, the ED50 (Aspirin ulcer) is reported as 23.8 mg/kg and the inhibition at 1000 µM ((H^+ +K^+) ATPase) is reported as 100%. For the same compound, the “inhibitory effect on (H^+ +K^+) ATPase (in words)” value ((H^+ +K^+) ATPase) was “marked inhibitor effect”.

For `COc1ccc2[nH]c([S+]([O-])Cc3ncc(C)cc3C)nc2n1` (stereo not shown) [Example 1, 2-[2-(3,5-Dimethyl)pyridylmethylsulfinyl]-5-methoxyimidazo[4,5-b]pyridine], the ED50 (Aspirin ulcer) was 6.3 mg/kg and the inhibition at 1000 µM ((H^+ +K^+) ATPase) was 100%.

`CCOc1ccc2[nH]c([S+]([O-])Cc3ncc(C)c(C)c3C)nc2n1` (stereo not shown) [Example 8, 2-[2-(3,4,5-Trimethyl)pyridylmethylsulfinyl]-5-ethoxyimidazo[4,5-b]pyridine] showed an ED50 (Aspirin ulcer) of 10.7 mg/kg and an inhibition at 1000 µM ((H^+ +K^+) ATPase) of 100%.

`COc1cc(C[S+]([O-])c2nc3nc(OCC4CC4)ccc3[nH]2)ncc1C` (stereo not shown) [Example 13, 2-[2-(4-Methoxy-5-methyl)pyridylmethylsulfinyl]-5-cyclopropylmethyloxyimidazo[4,5-b]pyridine] gave an ED50 (Aspirin ulcer) of 14.5 mg/kg and an inhibition at 1000 µM ((H^+ +K^+) ATPase) of 87.4%.

`COc1c(C)cnc(C[S+]([O-])c2nc3nc(OCC4CC4)ccc3[nH]2)c1C` (stereo not shown) [Example 24, 2-[2-(3,5-Dimethyl-4-methoxy)pyridylmethylsulfinyl]-5-cyclopropylmethyloxyimidazo[4,5-b]pyridine] showed an ED50 (Aspirin ulcer) of 5.4 mg/kg and an inhibition at 1000 µM ((H^+ +K^+) ATPase) of 100%.

Work on `COc1c(C)cnc(C[S+]([O-])c2nc3nc(OCC(F)(F)F)ccc3[nH]2)c1C` (stereo not shown) [Example 26, 2-[2-(3,5-Dimethyl-4-methoxy)pyridylmethylsulfinyl]-5-(2,2,2-trifluoroethoxy)imidazo[4,5-b]pyridine] yielded an ED50 (Aspirin ulcer) of 9.5 mg/kg and an inhibition at 1000 µM ((H^+ +K^+) ATPase) of 100%.

`CCCCCCCOc1ccc2[nH]c([S+]([O-])Cc3ncc(C)cc3C)nc2n1` (stereo not shown) [Example 33, 2-[2-(3,5-Dimethyl)pyridylmethylsulfinyl]-5-n-heptyloxyimidazo[4,5-b]pyridine] showed an ED50 (Aspirin ulcer) of 12.6 mg/kg and an inhibition at 1000 µM ((H^+ +K^+) ATPase) of 95.4%.

In the case of `COc1ccc2[nH]c([S+]([O-])Cc3ncc(C)c(OC)c3C)nc2c1` (stereo not shown) [Omeprazole, reference compound], the ED50 (Aspirin ulcer) is reported as 17.2 mg/kg and the inhibition at 1000 µM ((H^+ +K^+) ATPase) is reported as 38.7%.
